Reference: ChEMBL document CHEMBL1201862, “PubChem BioAssay data set” (2004)
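How tested: cells in 96-well plates exposed to compound for 48 hours at five concentrations. At the GI50, growth is halved.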 Active and inactive are the calls of the source. No stated cut-off is given here; in the data, active = GI50 up to about 1.1 µM and inactive = higher.

Key:
Assay in all cases: DTP human tumour cell line panel, 48 h
[1] = test system: SF-539
[2] = test system: HL-60
[3] = test system: HCT-116
[4] = test system: NCI-H23
[5] = test system: SNB-75
[6] = test system: NCI-H226
[7] = test system: A498
[8] = test system: UACC-62
[9] = test system: SN12C
[10] = test system: CAKI-1
[11] = test system: HCT-15
[12] = test system: LOX IMVI
[13] = test system: M14
[14] = test system: NCI-H460
[15] = test system: TK-10
[16] = test system: COLO 205
[17] = test system: OVCAR-3

`CC(C)=CCC/C(C)=C/CC/C(C)=C/CC/C=C(\C)CC/C=C(\C)CCC1SC1(C)C` (stereo unspecified) was tested, and the GI50 [1] was > 100 µM (inactive), the GI50 [2] was > 100 µM (inactive) and the GI50 [3] was > 100 µM (inactive). For the same compound, the GI50 [4] was > 100 µM (inactive), the GI50 [5] was > 100 µM (inactive) and the GI50 [6] was > 100 µM (inactive). The GI50 [7] was > 100 µM (inactive), the GI50 [8] was > 100 µM (inactive) and the GI50 [9] was > 100 µM (inactive). The GI50 [10] was > 100 µM (inactive), the GI50 [11] was > 100 µM and the GI50 [12] was > 100 µM (inactive). For the same compound, the GI50 [13] was > 100 µM (inactive), the GI50 [14] was > 100 µM (inactive) and the GI50 [15] was > 100 µM (inactive). The GI50 [16] was > 100 µM (inactive).

For `N#CC12CC3(CCC1CCC1(C2)OCCO1)OCCO3` (stereo unspecified), the GI50 [1] was > 100 µM (inactive), the GI50 [17] was > 100 µM (inactive) and the GI50 [2] was > 100 µM (inactive). For the same compound, the GI50 [3] was > 100 µM (inactive), the GI50 [4] was > 100 µM (inactive) and the GI50 [5] was > 100 µM (inactive). The GI50 [6] was > 100 µM (inactive), the GI50 [7] was > 100 µM (inactive) and the GI50 [8] was > 100 µM (inactive). For the same compound, the GI50 [9] was > 100 µM (inactive), the GI50 [10] was > 100 µM (inactive) and the GI50 [11] was > 100 µM. The GI50 [12] was > 100 µM (inactive), the GI50 [13] was > 100 µM (inactive) and the GI50 [14] was > 100 µM (inactive). For the same compound, the GI50 [15] was > 100 µM (inactive) and the GI50 [16] was > 100 µM (inactive).

In the case of `COC(=O)[C@@H]1C(=O)O[C@@H](c2ccc3c(c2)OCO3)[C@@H]1C(=O)OC.COC(=O)[C@H]1C(=O)O[C@@H](c2ccc3c(c2)OCO3)[C@@H]1C(=O)OC`, the GI50 [1] is reported as > 100 µM (inactive), the GI50 [17] is reported as > 100 µM (inactive) and the GI50 [2] is reported as > 100 µM (inactive). For the same compound, the GI50 [3] was > 100 µM (inactive), the GI50 [4] was > 100 µM (inactive) and the GI50 [5] was > 100 µM (inactive). The GI50 [6] was > 100 µM (inactive), the GI50 [7] was > 100 µM (inactive) and the GI50 [8] was > 100 µM (inactive). The GI50 [9] was > 100 µM (inactive), the GI50 [10] was > 100 µM (inactive) and the GI50 [11] was > 100 µM. The GI50 [12] was > 100 µM (inactive), the GI50 [13] was > 100 µM (inactive) and the GI50 [14] was > 100 µM (inactive). For the same compound, the GI50 [15] was > 100 µM (inactive) and the GI50 [16] was > 100 µM (inactive).

`Nc1ccccc1N` was tested, and the GI50 [1] was > 100 µM (inactive), the GI50 [17] was > 100 µM (inactive) and the GI50 [2] was 25.6 µM (inactive). For the same compound, the GI50 [3] was > 100 µM (inactive), the GI50 [4] was > 100 µM (inactive) and the GI50 [5] was > 100 µM (inactive). The GI50 [7] was > 100 µM (inactive), the GI50 [8] was > 100 µM (inactive) and the GI50 [9] was > 100 µM (inactive). For the same compound, the GI50 [10] was > 100 µM (inactive), the GI50 [11] was > 100 µM and the GI50 [12] was > 100 µM (inactive). The GI50 [13] was > 100 µM (inactive), the GI50 [14] was > 100 µM (inactive) and the GI50 [15] was > 100 µM (inactive). For the same compound, the GI50 [16] was > 100 µM (inactive).
